Data published in US6825230B2, “Spiro and dispiro 1,2,4-trixolane antimalarials” (Medicines for Malaria Venture MMV, priority 2002, dated 2004).
In brackets after ≈: the same amount, converted by molar mass. Read-outs that look alike come from different tables or passages of the source.

Key:
[1] = tested on: Schistosoma mansoni adult worms (49-day-old); test: Effect on adult schistosomes (49-day-old) in infected mice; format: in vivo; conditions: for % reduction of adult worms growth at day 49 after per os application of 400 mg/kg, TWR (%) / Adult worms day 49, per os 400 mg/kg, DEAD WORM (%): single 400 mg/kg per os
Experimental: Mice were infected with 100 Schistosoma mansoni cercariae on day 49 post-treatment. Each group was treated per os with OZ compounds at single doses of 200, 400, and 600 mg/kg. Untreated mice served as the control. All groups were killed 4 weeks after treatment and the liver and intestine were removed and separated. The liver and intestine were compressed and alive male and female worms could be seen and counted.

[2] = tested on: Schistosoma mansoni 21-day-old schistosomules; test: Effect on 21-day-old schistosomules in infected mice; format: in vivo; conditions: single 200 mg/kg per os, 21-day-old schistosomules; for % reduction of schistosomule growth at day 21 after per os application of 200 mg/kg, FWR (%): female worm reduction rate; for % reduction of schistosomule growth at day 21 after per os application of 200 mg/kg, TWR (%): total worm reduction rate
Experimental: Mice were infected with 100 Schistosoma mansoni cercariae on day 21 post-treatment. Each group was treated per os with trioxolanes at a single dose of 200 mg/kg. […] All groups were killed 4 weeks after treatment and the liver and intestine were removed and separated. The liver and intestine were compressed and alive male and female worms could be seen and counted. The effect of the compounds was evaluated by mean total and female worm burden.

[3] = tested on: ANKA strain of Plasmodium berghei; test: Single dose ED50/ED90/ED99 determination in infected mice; format: in vivo; conditions: single dose po in SSV on day 1 post-infection, parasitemia day 3, nonlinear fitting; for ED50: Plasmodium berghei, po
Experimental: In the single dose ED50/ED98/ED99 determinations, Moro SPF or NMRI mice (group of three) infected with the ANKA strain of Plasmodium berghei were treated on day one post-infection. […] The SSV consists of 0.5% w/v CMC, 0.5% v/v benzyl alcohol, 0.4% v/v Tween 80, and 0.9% w/v sodium chloride in water. Antimalarial activity was measured by percent reduction in parasitemia on day three post-infection. The ED50/ED90 values were calculated by nonlinear fitting.
The ED50, ED90, and ED99 values were calculated by non-linear fitting with statistical program and were expressed in mg/kg.

P. berghei ANKA strain [4] = test: Onset of action and recrudescence experiment, single 100 mg/kg po; format: in vivo, Plasmodium berghei; conditions: single 100 mg/kg po (SSV) on day +3 post-infection; recrudescence = >5% parasitemia; followed up to 60 days; groups of five
Experimental: The onset of drug action was determined after a single fixed dose of 100 mg/kg (SSV vehicle) po to groups of five animals on day +3 post-infection (day 0).
(§1) Moro NMRI male mice (Fu Albino specific pathogen free) weighing 18±2 g were infected intravenously (i.v.) with 2×10^7 P. berghei ANKA strain-infected erythrocytes from donor mice on day 0 of the experiment. From donor mice with circa 30% parasitemia, heparinized blood was taken and diluted in physiological saline to 10^8 parasitized erythrocytes per ml. An aliquot (0.2 ml) of this suspension was injected i.v. into experimental and control groups of mice. […] Throughout the experiments, mice were kept in groups of three or five animals in Makrolon type II cages in an air-conditioned animal room at 22 to 23° C.

P. berghei ANKA strain [5] = test: Divided 3x10 mg/kg vs single 1x30 mg/kg po dose in infected mice; format: in vivo, Plasmodium berghei
Experimental: as §1
They were administered per os (p.o.) in a total volume of 0.01 ml per gram of mouse. The activity of the compound was determined by a variety of methods outlined in subsequent sections. Survival time was also recorded, and survival to day 30 post-infection was considered to be a cure.
The first experiment conducted consisted of administration of a divided 3×10 mg/kg p.o. dose administered on days 1, 2, and 3 post-infection vs. a single 1×30 mg/kg po dose administered on day 1 post-infection. On day 4 post-infection, blood smears of all animals were prepared and stained with Giemsa. […] Compounds were administered orally in the SSV vehicle.

[6] = tested on: chloroquine-resistant K1 strain of P. falciparum; test: In vitro antimalarial semiautomated microdilution assay ([3H]-hypoxanthine incorporation), K1 strain; format: cell-based, Plasmodium falciparum; conditions: Plasmodium falciparum
Summary of the method: (§2)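 IC50 values come from Logit regression of [3H]-hypoxanthine uptake data. Parasites were intraerythrocytic P. falciparum forms taken from asynchronous stock cultures and tested by semiautomated microdilution.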

[7] = tested on: ANKA strain of P. berghei; test: Single dose STI in vivo screen in infected mice; design: species or system Plasmodium berghei; conditions: for Survival (days) 10 mg/kg SSV po: single 10 mg/kg po in SSV; for Survival (days) 10 mg/kg SSV po / Survival (days) 10 mg/kg po / Survival (days) 10 mg/kg sc: untreated 6-7 days; for Survival (days) 10 mg/kg po: single 10 mg/kg po in 3% ethanol and 7% Tween 80; for Activity (%) 10 mg/kg po: single 10 mg/kg po in 3% ethanol and 7% Tween 80 on day 1 post-infection; for Activity (%) 10 mg/kg po / Activity (%) 10 mg/kg SSV po / Activity (%) 10 mg/kg sc: percent reduction in parasitemia on day 3; for Activity (%) 10 mg/kg SSV po: single 10 mg/kg po in standard suspending vehicle (SSV) on day 1 post-infection; for Survival (days) 10 mg/kg sc: single 10 mg/kg sc in 3% ethanol and 7% Tween 80; for Activity (%) 10 mg/kg sc: single 10 mg/kg sc in 3% ethanol and 7% Tween 80 on day 1 post-infection
[8] = tested on: chloroquine-sensitive NF54 strain of P. falciparum; test: In vitro antimalarial semiautomated microdilution assay ([3H]-hypoxanthine incorporation), NF54 strain; format: cell-based, Plasmodium falciparum; conditions: Plasmodium falciparum
Summary of the method: as §2

P. berghei ANKA strain [9] = test: Divided 3x3 mg/kg and 3x1 mg/kg po doses in infected mice; format: in vivo, Plasmodium berghei
Summary of the method: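 Male NMRI mice were infected i.v. with 2×10^7 P. berghei-parasitized erythrocytes on day 0, then dosed orally in SSV vehicle on days 1, 2 and 3 post-infection.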

[10] = Pharmacokinetics in dogs (IV and oral dosing); conditions: in vivo, dog; for bioavailability: some values marked (V), not defined
Text: (§3) Artesunate is listed as a reference compound.

[11] = Pharmacokinetics in rats (IV and oral dosing); conditions: rat, in vivo
Text: as §3

P. berghei ANKA strain [12] = test: Prophylactic activity, single 100 mg/kg po at various times before infection; format: in vivo, Plasmodium berghei
Experimental: as §1
Prophylactic activities of the compounds were compared after administering po single dose of 100 mg/kg to different groups of five animals at various times before infection. All groups including an untreated control group, were then infected at the same time. Parasitemia was determined for each animal on day 3 post-infection, and percent of reduction of the level of parasitemia compared to levels for animals given no drug is determined.

[13] = 49-day-old adults, total worm reduction rate
[14] = percentage of dead worm in the liver
[15] = K1, 72 h, read-out: IC50 (ng/ml) K1, chloroquine-resistant K1 strain, 72 h incubation
[16] = NF54, 72 h, read-out: IC50 (ng/ml) NF54, chloroquine-sensitive NF54 strain, 72 h incubation

SMILES	% reduction of adult worms growth at day 49 after per os application of 400 mg/kg, TWR (%) [1, 13] [%]	Adult worms day 49, per os 400 mg/kg, DEAD WORM (%) [1, 14] [%]	ED90 [3] [mg/kg]	ED99 [3] [mg/kg]	Time of Recrudescence (P. berghei ANKA strain [4]) [days]	Survival (days) 10 mg/kg SSV po [7] [days]	Survival (days) 10 mg/kg po [7] [days]	Activity (%) 10 mg/kg po [7] [%]	Activity (%) 10 mg/kg SSV po [7] [%]	Survival (days) 10 mg/kg sc [7] [days]	Activity (%) 10 mg/kg sc [7] [%]	further results
CC1(C)COC2(CCC3(CC2)OOC2(O3)C3CC4CC(C3)CC2C4)OC1 (stereo not shown) [OZ11]	16	4	6.2	8.2	22.2							% reduction of schistosomule growth at day 21 after per os application of 200 mg/kg, FWR (%) [2]: 84%; % reduction of schistosomule growth at day 21 after per os application of 200 mg/kg, TWR (%) [2]: 85%
CCN(CC)CCCC(C)Nc1ccnc2cc(Cl)ccc12 (stereo not shown) [CQ, chloroquine, reference compound]				5.9	17.8	9.0						Cures 3 × 10 mg/kg p.o. SSV (P. berghei ANKA strain [5]; 10 mg/kg po on days 1, 2, 3, cure = survival to day 30 post-infection): 0/5; Survival (days) 3 × 10 mg/kg p.o. SSV (P. berghei ANKA strain [5]; 10 mg/kg po on days 1, 2, 3 post-infection): 14.3 days; Survival (days) 1 × 30 mg/kg p.o. SSV (P. berghei ANKA strain [5]; single 30 mg/kg po on day 1 post-infection): 9.5 days; Cures 1 × 30 mg/kg p.o. SSV (P. berghei ANKA strain [5]; single 30 mg/kg po, cure = survival to day 30 post-infection): 0/5; IC50 ([6]; K1, 72 h, read-out: IC50 (ng/ml) K1): 76 ng/mL (≈ 238 nM); Survival (days) 3 mg/kg SSV po ([7]; single 3 mg/kg po in SSV): 8.0 days; IC50 ([8]; NF54, 72 h, read-out: IC50 (ng/ml) NF54): 4.4 ng/mL (≈ 13.8 nM); Survival (P. berghei ANKA strain [9]; 3 × 1 mg/kg p.o. SSV on days 1, 2, 3 post-infection): 7.2 days; Survival (P. berghei ANKA strain [9]; 3 × 3 mg/kg p.o. SSV on days 1, 2, 3 post-infection): 10 days
O=C(O)CC1CCC2(CC1)OOC1(O2)C2CC3CC(C2)CC1C3 (stereo not shown) [OZ78]	0	17	9.1	17	11.2							% reduction of adult worms growth at day 49 after per os application of 200 mg/kg, TWR (%) ([1]; single 200 mg/kg per os, 49-day-old adults, total worm reduction rate): 24%; Adult worms day 49, per os 200 mg/kg, DEAD WORM (%) ([1]; single 200 mg/kg per os, percentage of dead worm in the liver): 29%; % reduction of adult worms growth at day 49 after per os application of 600 mg/kg, TWR (%) ([1]; single 600 mg/kg per os, 49-day-old adults, total worm reduction rate): 0%; Adult worms day 49, per os 600 mg/kg, DEAD WORM (%) ([1]; single 600 mg/kg per os, percentage of dead worm in the liver): 14%; % reduction of schistosomule growth at day 21 after per os application of 200 mg/kg, FWR (%) [2]: 87%; % reduction of schistosomule growth at day 21 after per os application of 200 mg/kg, TWR (%) [2]: 82%
c1ccc(C[C@H]2CC[C@]3(CC2)OOC2(O3)C3CC4CC(C3)CC2C4)cc1 (stereo partly shown) [OZ156]	0	6	2.6	4.7	> 60	10.3	17.0	99.98	98.8	19.7	99.98	IC50 [6, 15]: 2.1 ng/mL (≈ 5.92 nM); IC50 [8, 16]: 2.1 ng/mL (≈ 5.92 nM); ED50 [3]: 1.3 mg/kg
NC(=O)CNC[C@H]1CC[C@]2(CC1)OOC1(O2)C2CC3CC(C2)CC1C3 (stereo partly shown) [OZ256]	10	19				8.7	8.7	99.70	99.67	9.7	99.95	half-life ([10]; IV 10 mg/kg): 1.42 h; half-life ([10]; oral 10 mg/kg): 1.38 h; bioavailability ([10]; oral 10 mg/kg, read-out: Dog Oral Bioavailability 10 mg/kg): 42%; bioavailability ([10]; oral 25 mg/kg, read-out: Dog Oral Bioavailability 25 mg/kg): 38.3%; IC50 ([6]; chloroquine-resistant K1 strain, 72 h incubation, read-out: IC50 (ng/ml) K1): 0.3 ng/mL (≈ 0.856 nM); half-life ([11]; iv, 10 mg/kg): 1.57 h; bioavailability ([11]; po, 10 mg/kg): 18.6%; bioavailability ([11]; po, 25 mg/kg): 51.9%; half-life ([11]; po, 25 mg/kg): 1.22 h; IC50 ([8]; chloroquine-sensitive NF54 strain, 72 h incubation, read-out: IC50 (ng/ml) NF54): 0.2 ng/mL (≈ 0.571 nM); Prophylactic Activity (%) 72 h (P. berghei ANKA strain [12]; po, 100 mg/kg): 13%; Prophylactic Activity (%) 24 h (P. berghei ANKA strain [12]; single 100 mg/kg po 24 h before infection, parasitemia reduction on day 3 post-infection): 82%; Prophylactic Activity (%) 48 h (P. berghei ANKA strain [12]; single 100 mg/kg po 48 h before infection, parasitemia reduction on day 3 post-infection): 29%; Prophylactic Activity (%) 0 h (P. berghei ANKA strain [12]; single 100 mg/kg po at 0 h, parasitemia reduction on day 3 post-infection): 100%
CCO[C@H]1O[C@@H]2O[C@@]3(C)CC[C@H]4[C@H](C)CC[C@@H]([C@H]1C)[C@@]24OO3 [Arteether, arteether, reference compound]					11.4							
O=C(C[C@H]1CC[C@]2(CC1)OOC1(O2)C2CC3CC(C2)CC1C3)NO (stereo partly shown) [OZ175]			6.2	9.9	13.0	12.3	10.0	99.1	97	8.7	92	IC50 [6, 15]: 1.4 ng/mL (≈ 4.15 nM); IC50 [8, 16]: 2 ng/mL (≈ 5.93 nM); ED50 [3]: 3.5 mg/kg
